Test results from patent US20240018133A1, “MODULATORS OF THE INTEGRATED STRESS PATHWAY” (Calico Life Sciences LLC, priority 2019, published 2024).
pEC50: −log10 of the molar value.

Tested on: ATF4 luciferase reporter (human full-length ATF4 5'-UTR fused to firefly luciferase) in HEK293T cells
Experiment: ATF4-Luc assay (in vitro model of VWMD): HEK293T cells carrying ATF4 luciferase reporter, tunicamycin-treated
Assay type: cell-based
Settings: Homo sapiens, HEK-293T, 1 μg/mL tunicamycin, 7 hours, One Glo luminescence
In short: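 Stable HEK293T line with human ATF4 5′-UTR–firefly luciferase reporter treated with 1 μg/mL tunicamycin plus 200 nM compound for 7 h. Luminescence read; EC50 derived.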

Row | SMILES | pEC50
1 | O=C(COc1ccc(F)c(F)c1)NC12CC(NC(=O)[C@@H]3CC(=O)c4cc(Cl)ccc4O3)(C1)C2 [Compound 276, (2S)-6-chloro-N-{3-[2-(3,4-difluorophenoxy)acetamido]bicyclo[1.1.1]pentan-1-yl}-4-oxo-3,4-dihydro-2H-1-benzopyran-2-carboxamide] | 7.30 to 8.00
2 | O=C(NC12CC(NC(=O)[C@H]3C[C@@H](O)c4cc(Cl)ccc4O3)(C1)C2)c1cnn([C@H]2C[C@@H](OC(F)(F)F)C2)c1 [Compound 381, N-(3-{[(2R,4R)-6-chloro-4-hydroxy-3,4-dihydro-2H-1-benzopyran-2-carbonyl]amino}bicyclo[1.1.1]pentan-1-yl)-1-[cis-3-(trifluoromethoxy)cyclobutyl]-1H-pyrazole-4-carboxamide] | > 8.00
3 | O=C(NC12CC(NC(=O)[C@H]3CC(=O)c4cc(Cl)ccc4O3)(C1)C2)c1ccc(OC(F)(F)F)cn1 [Compound 379, N-(3-{[(2R)-6-chloro-4-oxo-3,4-dihydro-2H-1-benzopyran-2-carbonyl]amino}bicyclo[1.1.1]pentan-1-yl)-5-(trifluoromethoxy)pyridine-2-carboxamide] | 5.70 to 6.30
4 | O=C(COc1ccc(Cl)c(F)c1)N[C@@H]1C[C@@H]2O[C@H]1C[C@H]2NC(=O)[C@H]1C[C@@H](O)c2cc(Cl)ccc2O1 [Compound 375, (2R,4R)-6-chloro-N-{(1S,2R,4S,5R)-5-[2-(4-chloro-3-fluorophenoxy)acetamido]-7-oxabicyclo[2.2.1]heptan-2-yl}-4-hydroxy-3,4-dihydro-2H-1-benzopyran-2-carboxamide] | > 8.00
5 | O=C(NC12CCC(NC(=O)C3CC(=O)c4cc(Cl)ccc4O3)(CC1)[C@@H](O)C2)c1cc(C(F)F)no1 (stereo partly drawn) [Compound 214, N-{(3S)-4-[(6-chloro-4-oxo-3,4-dihydro-2H-1-benzopyran-2-carbonyl)amino]-3-hydroxybicyclo[2.2.2]octan-1-yl}-3-(difluoromethyl)-1,2-oxazole-5-carboxamide] | 6.30 to 6.60
6 | C[C@]1(C(=O)NC23CC(NC(=O)COc4ccc(Cl)c(F)c4)(C2)C3)C[C@H](O)c2cc(Cl)ccc2O1 (racemic) [Compound 250, rac-(2R,4S)-6-chloro-N-{3-[2-(4-chloro-3-fluorophenoxy)acetamido]bicyclo[1.1.1]pentan-1-yl}-4-hydroxy-2-methyl-3,4-dihydro-2H-1-benzopyran-2-carboxamide] | 6.60 to 7.30
7 | O=C(COc1ccc(Cl)c(F)c1)NC12CC(NC(=O)[C@H]3C[C@@H](N[C@H]4C[C@@H](O)C4)c4cc(Cl)ccc4O3)(C1)C2 [Compound 328, (2R,4R)-6-chloro-N-{3-[2-(4-chloro-3-fluorophenoxy)acetamido]bicyclo[1.1.1]pentan-1-yl}-4-{[(1s,3S)-3-hydroxycyclobutyl]amino}-3,4-dihydro-2H-1-benzopyran-2-carboxamide] | 6.60 to 7.30
8 | O=C(COc1ccc(Cl)c(F)c1)NC12CC(NC(=O)[C@H]3CC(=O)c4cc(Cl)ccc4O3)(C1)C2 [Compound 223, (2R)-6-chloro-N-{3-[2-(4-chloro-3-fluorophenoxy)acetamido]bicyclo[1.1.1]pentan-1-yl}-4-oxo-3,4-dihydro-2H-1-benzopyran-2-carboxamide] | > 8.00
9 | O=C(COc1ccc(Cl)c(F)c1)NC12CC(NC(=O)[C@H]3C[C@@H](NCCO)c4cc(Cl)ccc4O3)(C1)C2 [Compound 308, (2R,4R)-6-chloro-N-{3-[2-(4-chloro-3-fluorophenoxy)acetamido]bicyclo[1.1.1]pentan-1-yl}-4-[(2-hydroxyethyl)amino]-3,4-dihydro-2H-1-benzopyran-2-carboxamide] | 7.30 to 8.00
10 | O=C(NC12CCC(NC(=O)[C@H]3C[C@@H](O)c4cc(Cl)ccc4O3)(C1)C2)c1ccc(C(F)(F)F)cc1 [Compound 374, (2R,4R)-6-chloro-4-hydroxy-N-{4-[4-(trifluoromethyl)benzamido]bicyclo[2.1.1]hexan-1-yl}-3,4-dihydro-2H-1-benzopyran-2-carboxamide] | 6.30 to 6.60
11 | C[C@]1(C(=O)NC23CC(NC(=O)COc4ccc(Cl)c(F)c4)(C2)C3)Oc2ccc(Cl)cc2C1O (stereo partly drawn) [Compound 262, (2S)-5-chloro-N-{3-[2-(4-chloro-3-fluorophenoxy)acetamido]bicyclo[1.1.1]pentan-1-yl}-3-hydroxy-2-methyl-2,3-dihydro-1-benzofuran-2-carboxamide] | < 5.70
12 | O=C(COc1ccc(Cl)c(F)c1)N[C@H]1C[C@H]2C[C@@H]1C[C@@H]2NC(=O)[C@H]1CC(=O)c2cc(Cl)ccc2O1 (mixture of isomers) [Compound 368, (2R)-6-chloro-N-{(1RS,2SR,4RS,5SR)-5-[2-(4-chloro-3-fluorophenoxy)acetamido]bicyclo[2.2.1]heptan-2-yl}-4-oxo-3,4-dihydro-2H-1-benzopyran-2-carboxamide] | > 8.00
13 | O=C(NC12CCC(NC(=O)[C@H]3CC(=O)c4cc(Cl)ccc4O3)(CC1)C[C@@H]2O)c1cnc(C(F)F)cn1 [Compound 352, N-[(2S)-4-{[(2R)-6-chloro-4-oxo-3,4-dihydro-2H-1-benzopyran-2-carbonyl]amino}-2-hydroxybicyclo[2.2.2]octan-1-yl]-5-(difluoromethyl)pyrazine-2-carboxamide] | 5.70 to 6.30
14 | O=C(COc1ccc(F)c(F)c1)NC12CC(NC(=O)[C@@H]3CC(=O)c4cc(F)c(F)cc4O3)(C1)C2 [Compound 321, (2S)—N-{3-[2-(3,4-difluorophenoxy)acetamido]bicyclo[1.1.1]pentan-1-yl}-6,7-difluoro-4-oxo-3,4-dihydro-2H-1-benzopyran-2-carboxamide] | 6.60 to 7.30
15 | O=C(COc1ccc(Cl)c(F)c1)NC12CCC(NC(=O)C3CC(O)c4cc(Cl)ccc4O3)(CC1)CC2 (centres unmarked) [Compound 337, 6-chloro-N-{4-[2-(4-chloro-3-fluorophenoxy)acetamido]bicyclo[2.2.2]octan-1-yl}-4-hydroxy-3,4-dihydro-2H-1-benzopyran-2-carboxamide] | > 8.00
16 | O=C(COc1ccc(Cl)c(F)c1)NC12CC(NC(=O)C3CC(NCCO)c4cc(Cl)ccc4O3)(C1)C2 (centres unmarked) [Compound 188, 6-chloro-N-{3-[2-(4-chloro-3-fluorophenoxy)acetamido]bicyclo[1.1.1]pentan-1-yl}-4-[(2-hydroxyethyl)amino]-3,4-dihydro-2H-1-benzopyran-2-carboxamide] | 7.30 to 8.00
17 | O=C(COc1ccc(Cl)c(F)c1)NC12CC(NC(=O)c3cc(=O)c4ccc(C(F)(F)F)cc4o3)(C1)C2 [Compound 230, N-{3-[2-(4-chloro-3-fluorophenoxy)acetamido]bicyclo[1.1.1]pentan-1-yl}-4-oxo-7-(trifluoromethyl)-4H-1-benzopyran-2-carboxamide] | > 8.00
18 | O=C(NC12CC(NC(=O)[C@H]3C[C@@H](O)c4cc(Cl)ccc4O3)(C1)C2)c1cnn(-c2ccc(Cl)c(F)c2)c1 [Compound 391, 1-(4-chloro-3-fluorophenyl)-N-(3-{[(2R,4R)-6-chloro-4-hydroxy-3,4-dihydro-2H-1-benzopyran-2-carbonyl]amino}bicyclo[1.1.1]pentan-1-yl)-1H-pyrazole-4-carboxamide] | > 8.00
19 | O=C(COc1ccc(Cl)c(F)c1)NC12CC(NC(=O)[C@H]3C[C@H](NCC(F)(F)F)c4cc(Cl)ccc4O3)(C1)C2 [Compound 327, (2R,4S)-6-chloro-N-{3-[2-(4-chloro-3-fluorophenoxy)acetamido]bicyclo[1.1.1]pentan-1-yl}-4-[(2,2,2-trifluoroethyl)amino]-3,4-dihydro-2H-1-benzopyran-2-carboxamide] | 6.60 to 7.30
20 | O=C(COc1ccc(Cl)c(F)c1)NC12CC(NC(=O)[C@@H]3C[C@H](O)c4cc(F)c(Cl)cc4O3)(C1)C2 (single isomer, unassigned) [Compound 205] | > 8.00
21 | O=C(COc1ccc(Cl)c(Cl)c1)NC12CC(NC(=O)[C@@H]3CC(=O)c4cc(F)c(F)cc4O3)(C1)C2 [Compound 342, (2S)—N-{3-[2-(3,4-dichlorophenoxy)acetamido]bicyclo[1.1.1]pentan-1-yl}-6,7-difluoro-4-oxo-3,4-dihydro-2H-1-benzopyran-2-carboxamide] | 7.30 to 8.00
22 | CCc1ncc(C(=O)NC23CCC(NC(=O)[C@H]4C[C@@H](O)c5cc(Cl)ccc5O4)(CC2)C[C@@H]3O)o1 [Compound 274, N-[(2S)-4-{[(2R,4R)-6-chloro-4-hydroxy-3,4-dihydro-2H-1-benzopyran-2-carbonyl]amino}-2-hydroxybicyclo[2.2.2]octan-1-yl]-2-ethyl-1,3-oxazole-5-carboxamide] | 6.60 to 7.30
23 | O=C(NC12CC(NC(=O)[C@H]3C[C@@H](O)c4cc(Cl)ccc4O3)(C1)C2)c1cnn(-c2ccc(C(F)(F)F)nc2)c1 [Compound 392, N-(3-{[(2R,4R)-6-chloro-4-hydroxy-3,4-dihydro-2H-1-benzopyran-2-carbonyl]amino}bicyclo[1.1.1]pentan-1-yl)-1-[6-(trifluoromethyl)pyridin-3-yl]-1H-pyrazole-4-carboxamide] | 5.70 to 6.30
24 | Cc1cc(Cl)cc2c(=O)cc(C(=O)NC34CC(NC(=O)COc5ccc(Cl)c(F)c5)(C3)C4)oc12 [Compound 282, 6-chloro-N-{3-[2-(4-chloro-3-fluorophenoxy)acetamido]bicyclo[1.1.1]pentan-1-yl}-8-methyl-4-oxo-4H-1-benzopyran-2-carboxamide] | < 5.70
25 | O=C(COc1ccc(Cl)c(F)c1)NC12CC(NC(=O)[C@H]3C[C@@H](O)c4cc(Cl)c(F)cc4O3)(C1)C2 (racemic) [Compound 234, rac-(2R,4R)-6-chloro-N-{3-[2-(4-chloro-3-fluorophenoxy)acetamido]bicyclo[1.1.1]pentan-1-yl}-7-fluoro-4-hydroxy-3,4-dihydro-2H-1-benzopyran-2-carboxamide] | > 8.00
26 | O=C(COc1ccc(Cl)c(F)c1)NC12CC(NC(=O)[C@H]3C[C@@H](O)c4cc(F)c(F)cc4O3)(C1)C2 [Compound 252, (2R,4R)—N-{3-[2-(4-chloro-3-fluorophenoxy)acetamido]bicyclo[1.1.1]pentan-1-yl}-6,7-difluoro-4-hydroxy-3,4-dihydro-2H-1-benzopyran-2-carboxamide] | > 8.00
